10 compounds from US10004701B2, “Methods and compositions for treating infection” (UNIVERSITY OF ROCHESTER, priority 2012, dated 2018) can be followed below.

Common to all, as to assay: AK assay 384-well format, Prestwick library screening
One experiment has as its system P. aeruginosa. The class given is cell-based, Pseudomonas aeruginosa. To be noted: 50 μM final drug concentration; for fold induction at 50 µM: Pseudomonas aeruginosa, 3 h.
For another experiment, the system named is K. pneumoniae. Format: cell-based, Klebsiella pneumoniae. To be noted: 50 μM final drug concentration; for fold induction at 50 µM: Klebsiella pneumoniae, 3 h.
For another experiment, the system named is E. faecium. The class given is cell-based, Enterococcus faecium. To be noted: 50 μM final drug concentration; for fold induction at 50 µM: Enterococcus faecium, 3 h.
The test system of a further experiment is E. cloacae. Format: cell-based, Enterobacter cloacae. The settings on record: 50 μM final drug concentration; for fold induction at 50 µM: Enterobacter cloacae, 3 h.
Another experiment has as its system E. coli. Format: cell-based, Escherichia coli. The settings on record: 50 μM final drug concentration; for fold induction at 50 µM: Escherichia coli, 3 h.
The subject of experiment [1] is A. baumannii strain 98-37-09. Format: cell-based, Acinetobacter baumannii. The settings on record: 50 μM final drug concentration; for fold induction at 50 µM: Acinetobacter baumannii, 983709, 3 h.
Experiment [2] concerns S. aureus strain USA300-0114. The class given is cell-based, Staphylococcus aureus. The settings on record: 50 μM final drug concentration; for fold induction at 50 µM: Staphylococcus aureus, USA300, 3 h.
[3] abbreviates: cutoff for positive-scoring molecules 3-fold increase, read-out: AK-based Prestwick Library Screening Results, P. aeruginosa (fold increase in extracellular AK activity).
[4] abbreviates: cutoff for positive-scoring molecules 3-fold increase, read-out: AK-based Prestwick Library Screening Results, K. pneumoniae (fold increase in extracellular AK activity).
Where [5] appears, read: cutoff for positive-scoring molecules 3-fold increase, read-out: AK-based Prestwick Library Screening Results, E. faecium (fold increase in extracellular AK activity).
Setting [6] is: cutoff for positive-scoring molecules 3-fold increase, read-out: AK-based Prestwick Library Screening Results, E. cloacae (fold increase in extracellular AK activity).
The mark [7] stands for this setting: cutoff for positive-scoring molecules 3-fold increase, read-out: AK-based Prestwick Library Screening Results, E. coli (fold increase in extracellular AK activity).
Where [8] appears, read: cutoff for positive-scoring molecules 3-fold increase, read-out: AK-based Prestwick Library Screening Results, A. baumannii (fold increase in extracellular AK activity).
Where [9] appears, read: cutoff for positive-scoring molecules 3-fold increase, read-out: AK-based Prestwick Library Screening Results, S. aureus (fold increase in extracellular AK activity).
[10] abbreviates: planktonic P. aeruginosa, positive cutoff 3-fold increase, read-out: AK-based Prestwick library screening result, P. aeruginosa (fold increase in extracellular AK activity).
Setting [11] is: planktonic K. pneumoniae, positive cutoff 3-fold increase, read-out: AK-based Prestwick library screening result, K. pneumoniae (fold increase in extracellular AK activity).
Setting [12] is: planktonic E. faecium, positive cutoff 3-fold increase, read-out: AK-based Prestwick library screening result, E. faecium (fold increase in extracellular AK activity).
The mark [13] stands for this setting: planktonic E. cloacae, positive cutoff 3-fold increase, read-out: AK-based Prestwick library screening result, E. cloacae (fold increase in extracellular AK activity).
Setting [14] is: planktonic E. coli, positive cutoff 3-fold increase, read-out: AK-based Prestwick library screening result, E. coli (fold increase in extracellular AK activity).
[15] abbreviates: planktonic A. baumannii, positive cutoff 3-fold increase, read-out: AK-based Prestwick library screening result, A. baumannii (fold increase in extracellular AK activity).
[16] abbreviates: planktonic S. aureus, positive cutoff 3-fold increase, read-out: AK-based Prestwick library screening result, S. aureus (fold increase in extracellular AK activity).
The mark [17] stands for this setting: planktonic, cutoff for positive-scoring molecules 3-fold increase, read-out: AK-based Prestwick Library Screening Results, P. aeruginosa (fold increase in extracellular AK activity).
Where [18] appears, read: planktonic, cutoff for positive-scoring molecules 3-fold increase, read-out: AK-based Prestwick Library Screening Results, K. pneumoniae (fold increase in extracellular AK activity).
[19] abbreviates: planktonic, cutoff for positive-scoring molecules 3-fold increase, read-out: AK-based Prestwick Library Screening Results, E. faecium (fold increase in extracellular AK activity).
Setting [20] is: planktonic, cutoff for positive-scoring molecules 3-fold increase, read-out: AK-based Prestwick Library Screening Results, E. cloacae (fold increase in extracellular AK activity).
[21] abbreviates: planktonic, cutoff for positive-scoring molecules 3-fold increase, read-out: AK-based Prestwick Library Screening Results, E. coli (fold increase in extracellular AK activity).
Setting [22] is: planktonic, cutoff for positive-scoring molecules 3-fold increase, read-out: AK-based Prestwick Library Screening Results, A. baumannii (fold increase in extracellular AK activity).
Setting [23] is: planktonic, cutoff for positive-scoring molecules 3-fold increase, read-out: AK-based Prestwick Library Screening Results, S. aureus (fold increase in extracellular AK activity).

Counter-ions that a name gives are not always drawn. Like-named read-outs stand apart in the source and are kept apart here.

`NC(N)=NCCCCN=C(N)N` [Arcaine sulfate]: the fold induction at 50 µM is 0.8 with P. aeruginosa (setting [3]); 0.7 in the experiment with K. pneumoniae (setting [4]); 0.6 in the experiment on E. faecium (setting [5]); 1.2 with E. cloacae (setting [6]); 0.7 with E. coli (setting [7]); 0.8 in experiment [1] (setting [8]). For the same compound, the fold induction at 50 µM in experiment [2] (setting [9]) was determined as 0.9.

`CC1CC(OC(=O)c2ccccc2O)CC(C)(C)C1` (stereo not shown) [Homosalate]: the fold induction at 50 µM was 1.1 in the experiment with P. aeruginosa (setting [10]); 1.1 in the experiment on K. pneumoniae (setting [11]); 1.1 in the experiment on E. faecium (setting [12]); 1.5 with E. cloacae (setting [13]); 1.3 with E. coli (setting [14]); 1.8 in experiment [1] (setting [15]). The fold induction at 50 µM in experiment [2] (setting [16]) was found to be 1.2.

Take `c1coc(CNc2ncnc3nc[nH]c23)c1` [Compound 6-Furfurylaminopurine, 6-Furfurylaminopurine]: the fold induction at 50 µM was determined as 0.7 with P. aeruginosa (setting [17]); 0.5 with K. pneumoniae (setting [18]); 0.9 in the experiment on E. faecium (setting [19]); 0.9 in the experiment on E. cloacae (setting [20]); 0.7 in the experiment on E. coli (setting [21]); 0.7 in experiment [1] (setting [22]). Moreover, the fold induction at 50 µM in experiment [2] (setting [23]) came out at 0.6.

`CC(C)(C)C(=O)OCOC(=O)[C@@H]1N2C(=O)[C@@H](/N=C/N3CCCCCC3)[C@H]2SC1(C)C` [Pivmecillinam hydrochloride]: the fold induction at 50 µM in the experiment on P. aeruginosa (setting [3]) was determined as 0.6; in the experiment on K. pneumoniae (setting [4]), 0.5; in the experiment with E. faecium (setting [5]) it was 0.9; with E. cloacae (setting [6]), 0.8; with E. coli (setting [7]), 7.7; in experiment [1] (setting [8]), 1.1. The fold induction at 50 µM in experiment [2] (setting [9]) was 0.6.

In the case of `CC1(C)[C@@H](OC(=O)CCC(=O)O)CC[C@]2(C)[C@H]3C(=O)C=C4[C@@H]5C[C@@](C)(C(=O)O)CC[C@]5(C)CC[C@@]4(C)[C@]3(C)CC[C@@H]12` [Carbenoxolone disodium salt], the fold induction at 50 µM in the experiment on P. aeruginosa (setting [17]) was determined as 0.9; with K. pneumoniae (setting [18]) it was 0.7; in the experiment on E. faecium (setting [19]), 0.9; in the experiment on E. cloacae (setting [20]), 1.4; in the experiment with E. coli (setting [21]) it was 0.8; in experiment [1] (setting [22]), 1.1. The fold induction at 50 µM in experiment [2] (setting [23]) came out at 1.6.

On to `CCCOc1ccccc1-c1nc2nn[nH]c2c(=O)[nH]1` [Zaprinast], for which the fold induction at 50 µM turned out to be 0.7 in the experiment on P. aeruginosa (planktonic P. aeruginosa, cutoff for positive-scoring molecules 3-fold increase, read-out: AK-based Prestwick Library Screening Results, P. aeruginosa (increase in extracellular AK activity)); 0.5 in the experiment on K. pneumoniae (planktonic K. pneumoniae, cutoff for positive-scoring molecules 3-fold increase, read-out: AK-based Prestwick Library Screening Results, K. pneumoniae (increase in extracellular AK activity)); 1 in the experiment on E. faecium (planktonic E. faecium, cutoff for positive-scoring molecules 3-fold increase, read-out: AK-based Prestwick Library Screening Results, E. faecium (increase in extracellular AK activity)); 0.8 with E. cloacae (planktonic E. cloacae, cutoff for positive-scoring molecules 3-fold increase, read-out: AK-based Prestwick Library Screening Results, E. cloacae (increase in extracellular AK activity)); 0.7 with E. coli (planktonic E. coli, cutoff for positive-scoring molecules 3-fold increase, read-out: AK-based Prestwick Library Screening Results, E. coli (increase in extracellular AK activity)); 0.6 in experiment [1] (planktonic A. baumannii, cutoff for positive-scoring molecules 3-fold increase, read-out: AK-based Prestwick Library Screening Results, A. baumannii (increase in extracellular AK activity)). In experiment [2] (planktonic S. aureus, cutoff for positive-scoring molecules 3-fold increase, read-out: AK-based Prestwick Library Screening Results, S. aureus (increase in extracellular AK activity)), the fold induction at 50 µM is 0.6.

With `CC(=O)O[C@]1(C(C)=O)CC[C@H]2[C@@H]3C=C(Cl)C4=CC(=O)[C@@H]5C[C@@H]5[C@]4(C)[C@H]3CC[C@@]21C` [Cyproterone acetate], the fold induction at 50 µM amounted to 0.8 in the experiment with P. aeruginosa (setting [10]); 0.7 with K. pneumoniae (setting [11]); 1 in the experiment with E. faecium (setting [12]); 1.4 in the experiment on E. cloacae (setting [13]); 0.8 with E. coli (setting [14]); 0.8 in experiment [1] (setting [15]). Moreover, in experiment [2] (setting [16]), the fold induction at 50 µM worked out at 0.6.

Take `C#CCN(C)Cc1ccccc1` [Pargyline hydrochloride]: the fold induction at 50 µM with P. aeruginosa (384-well format, cutoff for positive-scoring molecules 3-fold increase, read-out: AK-based Prestwick Library Screening Results, P. aeruginosa (increase in extracellular AK activity)) was 1; in the experiment on K. pneumoniae (384-well format, cutoff for positive-scoring molecules 3-fold increase, read-out: AK-based Prestwick Library Screening Results, K. pneumoniae (increase in extracellular AK activity)), 0.8; in the experiment on E. faecium (384-well format, cutoff for positive-scoring molecules 3-fold increase, read-out: AK-based Prestwick Library Screening Results, E. faecium (increase in extracellular AK activity)), 0.9; with E. cloacae (384-well format, cutoff for positive-scoring molecules 3-fold increase, read-out: AK-based Prestwick Library Screening Results, E. cloacae (increase in extracellular AK activity)) it was 0.9; in the experiment with E. coli (384-well format, cutoff for positive-scoring molecules 3-fold increase, read-out: AK-based Prestwick Library Screening Results, E. coli (increase in extracellular AK activity)), 1; in experiment [1] (384-well format, cutoff for positive-scoring molecules 3-fold increase, read-out: AK-based Prestwick Library Screening Results, A. baumannii (increase in extracellular AK activity)), 0.9. The fold induction at 50 µM in experiment [2] (384-well format, cutoff for positive-scoring molecules 3-fold increase, read-out: AK-based Prestwick Library Screening Results, S. aureus (increase in extracellular AK activity)) was 0.8.

Take `C=C1[C@H]2C[C@@]3([C@@H]1O)[C@@H](C[C@@H]2O)[C@]12[C@@H]4C[C@H]3[C@H]1N(CC)C[C@]4(C)CC[C@@H]2O` [Napelline]: the “AK-based Prestwick Library Screening Results, P. aeruginosa (fold increase in extracellular AK activity)” value in the experiment on P. aeruginosa ([…]) was 1.1. Moreover, the “AK-based Prestwick Library Screening Results, K. pneumoniae (fold increase in extracellular AK activity)” value with K. pneumoniae ([…]) is 1.0. Further, the “AK-based Prestwick Library Screening Results, E. faecium (fold increase in extracellular AK activity)” value in the experiment on E. faecium ([…]) is 1.0. In the experiment on E. cloacae ([…]), the “AK-based Prestwick Library Screening Results, E. cloacae (fold increase in extracellular AK activity)” value amounted to 3.6. Further, the “AK-based Prestwick Library Screening Results, E. coli (fold increase in extracellular AK activity)” value with E. coli ([…]) was 1.3. For the same compound, the “AK-based Prestwick Library Screening Results, A. baumannii (fold increase in extracellular AK activity)” value in experiment [1] ([…]) stood at 1.0. Moreover, the “AK-based Prestwick Library Screening Results, S. aureus (fold increase in extracellular AK activity)” value in experiment [2] ([…]) stood at 1.4.

Regarding `Nc1ccc(S(=O)(=O)Nc2ccc(Cl)nn2)cc1` [Sulfachloropyridazine], the fold induction at 50 µM came out at 1 in the experiment with P. aeruginosa (setting [3]); 1.1 in the experiment with K. pneumoniae (setting [4]); 1 in the experiment on E. faecium (setting [5]); 1.5 in the experiment with E. cloacae (setting [6]); 1 in the experiment with E. coli (setting [7]); 2.1 in experiment [1] (setting [8]). The fold induction at 50 µM in experiment [2] (setting [9]) is 1.1.
